Calls of active or inactive are those of the source. No cut-off for these calls is given here.
Key:
HepG2 = test: Antiproliferative activity against ATM proficient human HepG2 cells assessed as reduction in cell viability incubated for 72 hrs by MTT assay; format: functional, cell-based; conditions: dose 0.001-100 µM, DDE = dose-dependent effect
[1] = Toxicity in NOD/SCID mouse xenografted with human LoVo cells assessed as damage in kidney at 50 to 100 mg/kg, po administered bid for 30 days measured after 2 hrs post last dose by H and E staining method; format: organism-based; conditions: in vivo, 720 h, dose 50-100 mg/kg, time 30 day
HT-29 [2] = test: Induction of apoptosis in human HT-29 cells assessed as necrotic cells at 0.3 uM measured after 48 hrs in presence of AZD1390 by Annexin V-FITC/Propidium iodide staining based flow cytometry analysis (reference value: 0.23%); format: functional
HT-29 [3] = test: Induction of apoptosis in human HT-29 cells assessed as viable cells at 0.3 uM measured after 48 hrs by Annexin V-FITC/Propidium iodide staining based flow cytometry analysis (reference value: 97.01%); format: functional; conditions: read-out: Activity
[4] = Volume of distribution at steady state in Sprague-Dawley rat at 5 mg/kg, iv measured at 0.083 to 24 hrs by LC-MS/MS method; format: ADME, organism-based; conditions: in vivo, time 0.083-24 hrs, read-out: Vdss
HT-29 [5] = test: Induction of apoptosis in human HT-29 cells assessed as necrotic cells at 3 uM measured after 48 hrs in presence of AZD1390 by Annexin V-FITC/Propidium iodide staining based flow cytometry analysis (reference value: 0.23%); format: functional
[6] = Cmax in Sprague-Dawley rat at 10 mg/kg, po measured at 0.083 to 24 hrs by LC-MS/MS method; format: ADME, organism-based; design: time 0.083-24 hrs, dose 10 mg/kg, route po; conditions: in vivo
[7] = target: T1, Serine/threonine-protein kinase ATR (Homo sapiens, UniProt Q13535); test: Inhibition of ATR signalling in ATM-deficient human LoVo cells assessed as inhibition of ATR phosphorylation incubated for 1 hr followed by hydroxyurea addition measured after 4 hrs by Western blot analysis; format: cell-based; conditions: dose <= 3.0 µM, time 5.0 hrs, DDE = dose-dependent effect
Target sequence in this assay (Q13535 whole entry, looked up): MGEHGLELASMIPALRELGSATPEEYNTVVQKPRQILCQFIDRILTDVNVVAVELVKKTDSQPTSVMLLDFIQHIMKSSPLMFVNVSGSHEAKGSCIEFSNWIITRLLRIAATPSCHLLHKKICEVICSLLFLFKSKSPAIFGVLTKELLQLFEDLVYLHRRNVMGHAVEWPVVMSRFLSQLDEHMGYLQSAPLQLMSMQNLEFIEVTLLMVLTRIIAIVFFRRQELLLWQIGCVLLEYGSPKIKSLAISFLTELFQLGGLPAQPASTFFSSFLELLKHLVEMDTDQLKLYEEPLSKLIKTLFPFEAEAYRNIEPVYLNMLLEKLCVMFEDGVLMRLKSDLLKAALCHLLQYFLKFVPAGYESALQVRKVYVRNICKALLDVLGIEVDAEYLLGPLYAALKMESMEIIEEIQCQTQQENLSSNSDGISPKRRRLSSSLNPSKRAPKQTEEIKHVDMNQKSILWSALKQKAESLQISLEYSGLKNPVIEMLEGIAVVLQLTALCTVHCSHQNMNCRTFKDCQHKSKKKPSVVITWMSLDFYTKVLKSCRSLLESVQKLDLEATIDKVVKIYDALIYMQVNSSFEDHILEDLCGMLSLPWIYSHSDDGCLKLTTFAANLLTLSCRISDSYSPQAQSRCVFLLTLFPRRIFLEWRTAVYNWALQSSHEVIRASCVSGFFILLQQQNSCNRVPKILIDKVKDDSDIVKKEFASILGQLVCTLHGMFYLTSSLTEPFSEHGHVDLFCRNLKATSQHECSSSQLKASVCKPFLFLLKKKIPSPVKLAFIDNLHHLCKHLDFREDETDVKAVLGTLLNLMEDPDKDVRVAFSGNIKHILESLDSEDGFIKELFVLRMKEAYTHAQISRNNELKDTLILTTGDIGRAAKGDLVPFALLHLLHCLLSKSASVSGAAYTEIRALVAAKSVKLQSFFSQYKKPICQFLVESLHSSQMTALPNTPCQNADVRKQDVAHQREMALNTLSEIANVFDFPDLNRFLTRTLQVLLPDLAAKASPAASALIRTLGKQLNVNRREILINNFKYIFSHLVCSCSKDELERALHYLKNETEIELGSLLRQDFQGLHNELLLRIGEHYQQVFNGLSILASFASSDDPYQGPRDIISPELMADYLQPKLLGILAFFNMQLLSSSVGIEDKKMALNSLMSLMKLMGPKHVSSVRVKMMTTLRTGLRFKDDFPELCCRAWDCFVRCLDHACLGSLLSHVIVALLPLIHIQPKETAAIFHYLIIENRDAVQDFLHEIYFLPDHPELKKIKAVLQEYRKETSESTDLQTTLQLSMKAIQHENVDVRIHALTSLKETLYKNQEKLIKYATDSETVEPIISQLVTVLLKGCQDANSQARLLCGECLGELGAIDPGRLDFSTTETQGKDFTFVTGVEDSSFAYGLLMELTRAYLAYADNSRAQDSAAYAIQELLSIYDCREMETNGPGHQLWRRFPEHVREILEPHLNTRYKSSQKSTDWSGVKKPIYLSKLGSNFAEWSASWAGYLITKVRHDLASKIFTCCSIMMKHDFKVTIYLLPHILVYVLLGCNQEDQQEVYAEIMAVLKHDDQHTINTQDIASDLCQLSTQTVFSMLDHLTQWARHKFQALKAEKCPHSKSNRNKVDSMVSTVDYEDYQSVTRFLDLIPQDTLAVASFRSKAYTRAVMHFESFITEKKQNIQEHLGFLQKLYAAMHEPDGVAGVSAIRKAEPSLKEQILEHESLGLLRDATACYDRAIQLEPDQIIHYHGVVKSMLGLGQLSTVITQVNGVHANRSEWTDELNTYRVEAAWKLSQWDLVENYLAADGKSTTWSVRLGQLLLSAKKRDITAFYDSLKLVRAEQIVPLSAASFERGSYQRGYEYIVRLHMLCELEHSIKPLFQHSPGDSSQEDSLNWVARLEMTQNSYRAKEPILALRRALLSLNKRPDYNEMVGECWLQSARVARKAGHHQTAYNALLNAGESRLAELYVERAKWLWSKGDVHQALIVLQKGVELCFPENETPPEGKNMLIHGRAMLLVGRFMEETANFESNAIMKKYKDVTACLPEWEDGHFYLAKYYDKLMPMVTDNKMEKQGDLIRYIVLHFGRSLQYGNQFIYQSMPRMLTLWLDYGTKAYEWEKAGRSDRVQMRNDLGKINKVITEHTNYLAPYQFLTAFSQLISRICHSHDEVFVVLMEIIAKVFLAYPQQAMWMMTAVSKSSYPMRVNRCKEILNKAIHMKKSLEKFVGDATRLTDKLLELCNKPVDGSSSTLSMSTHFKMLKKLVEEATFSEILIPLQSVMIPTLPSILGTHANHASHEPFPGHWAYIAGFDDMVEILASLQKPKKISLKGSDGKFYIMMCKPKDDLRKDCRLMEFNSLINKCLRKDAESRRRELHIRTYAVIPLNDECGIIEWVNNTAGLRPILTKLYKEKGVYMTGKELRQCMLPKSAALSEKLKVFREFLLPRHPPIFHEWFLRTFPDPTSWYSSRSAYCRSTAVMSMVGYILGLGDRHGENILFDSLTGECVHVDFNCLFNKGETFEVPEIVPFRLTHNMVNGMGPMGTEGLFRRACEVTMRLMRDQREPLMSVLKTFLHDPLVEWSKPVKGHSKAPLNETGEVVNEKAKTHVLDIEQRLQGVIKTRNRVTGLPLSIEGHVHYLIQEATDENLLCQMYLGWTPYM

LoVo [8] = test: Induction of apoptosis in human LoVo cells deficient in ATM assessed as viable cells at 3 uM measured after 24 hrs by Annexin V-FITC/Propidium iodide staining based flow cytometry analysis (reference value: 91.64%); format: functional; conditions: read-out: Activity
HT-29 [9] = test: Induction of apoptosis in human HT-29 cells assessed as viable cells at 0.3 uM measured after 48 hrs in presence of AZD1390 by Annexin V-FITC/Propidium iodide staining based flow cytometry analysis (reference value: 95.33%); format: functional; conditions: read-out: Activity
LoVo [10] = test: Induction of DNA damage in human LoVo cells deficient in ATM at 1 uM measured after 3 days by immunofluorescence assay; format: functional, cell-based; conditions: time 3.0 day
[11] = target: Serine-protein kinase ATM (Homo sapiens) (UniProt Q13315); test: Activation of ATM signaling in human HT-29 cells proficient in ATM at 1 uM measured after 3 days by immunofluorescence assay; format: cell-based; conditions: filed as activator, time 3.0 day
HT-29 [12] = test: Induction of apoptosis in human HT-29 cells assessed as early apoptotic cells at 3 uM measured after 48 hrs in presence of AZD1390 by Annexin V-FITC/Propidium iodide staining based flow cytometry analysis (reference value: 3.81%); format: functional
[13] = target: T1, Serine/threonine-protein kinase ATR; test: Inhibition of human recombinant full length ATR using GST-cMyc-p53 as substrate incubated for 40 mins in presence of ATP by HTRF assay
Target sequence in this assay (Q13535 whole entry): as the sequence (Q13535 whole entry, looked up) above

HT-29 [14] = test: Induction of apoptosis in human HT-29 cells assessed as necrotic cells at 1 uM measured after 48 hrs by Annexin V-FITC/Propidium iodide staining based flow cytometry analysis (reference value: 0.73%); format: functional
OVCAR-3 = test: Antiproliferative activity against ATM-deficient human OVCAR-3 cells assessed as reduction in cell viability incubated for 72 hrs by MTT assay; format: functional, cell-based; conditions: dose 0.001-100 µM, DDE = dose-dependent effect
LoVo [15] = test: Induction of apoptosis in human LoVo cells deficient in ATM assessed as early apoptotic cells at 3 uM measured after 24 hrs by Annexin V-FITC/Propidium iodide staining based flow cytometry analysis (reference value: 4.20%); format: functional
[16] = Cmax in Sprague-Dawley rat at 5 mg/kg, iv measured at 0.083 to 24 hrs by LC-MS/MS method; format: ADME, organism-based; design: dose 5 mg/kg, time 0.083-24 hrs, route iv; conditions: in vivo
HT-29 [17] = test: Induction of apoptosis in human HT-29 cells assessed as viable cells at 3 uM measured after 48 hrs by Annexin V-FITC/Propidium iodide staining based flow cytometry analysis (reference value: 97.01%); format: functional; conditions: read-out: Activity
HT-29 [18] = test: Induction of apoptosis in human HT-29 cells assessed as late apoptotic cells at 1 uM measured after 48 hrs in presence of AZD1390 by Annexin V-FITC/Propidium iodide staining based flow cytometry analysis (reference value: 0.63%); format: functional
LoVo [19] = test: In vivo induction of DNA damage in human LoVo cells xenografted in NOD/SCID mouse assessed as increase in gamma H2AX level administered orally twice a day for 30 days by immuno histochemical analysis; format: functional, organism-based; conditions: dose 50-100 mg/kg, route po, time 30.0 day, DDE = dose-dependent effect
LoVo [20] = test: Antitumor activity against human LoVo cells xenografted in NOD/SCID mouse assessed as tumor growth inhibition at 100 mg/kg, po BID for 30 days measured every 2 to 3 days; format: functional; conditions: 720 h, time 30 day, read-out: TGI
LoVo [21] = test: Antitumor activity against human LoVo cells xenografted in NOD/SCID mouse assessed as tumor growth inhibition at 50 mg/kg, po BID for 30 days measured every 2 to 3 days; format: functional; conditions: 720 h, time 30 day, read-out: TGI
[22] = target: Serine/threonine-protein kinase B-raf (Homo sapiens, UniProt P15056); test: Inhibition of human recombinant B-raf (416 to end residue) using myelin-Bas as substrate incubated for 40 mins in presence of ATP by scintillation counting method
Chain of Serine/threonine-protein kinase B-raf (P15056 whole entry): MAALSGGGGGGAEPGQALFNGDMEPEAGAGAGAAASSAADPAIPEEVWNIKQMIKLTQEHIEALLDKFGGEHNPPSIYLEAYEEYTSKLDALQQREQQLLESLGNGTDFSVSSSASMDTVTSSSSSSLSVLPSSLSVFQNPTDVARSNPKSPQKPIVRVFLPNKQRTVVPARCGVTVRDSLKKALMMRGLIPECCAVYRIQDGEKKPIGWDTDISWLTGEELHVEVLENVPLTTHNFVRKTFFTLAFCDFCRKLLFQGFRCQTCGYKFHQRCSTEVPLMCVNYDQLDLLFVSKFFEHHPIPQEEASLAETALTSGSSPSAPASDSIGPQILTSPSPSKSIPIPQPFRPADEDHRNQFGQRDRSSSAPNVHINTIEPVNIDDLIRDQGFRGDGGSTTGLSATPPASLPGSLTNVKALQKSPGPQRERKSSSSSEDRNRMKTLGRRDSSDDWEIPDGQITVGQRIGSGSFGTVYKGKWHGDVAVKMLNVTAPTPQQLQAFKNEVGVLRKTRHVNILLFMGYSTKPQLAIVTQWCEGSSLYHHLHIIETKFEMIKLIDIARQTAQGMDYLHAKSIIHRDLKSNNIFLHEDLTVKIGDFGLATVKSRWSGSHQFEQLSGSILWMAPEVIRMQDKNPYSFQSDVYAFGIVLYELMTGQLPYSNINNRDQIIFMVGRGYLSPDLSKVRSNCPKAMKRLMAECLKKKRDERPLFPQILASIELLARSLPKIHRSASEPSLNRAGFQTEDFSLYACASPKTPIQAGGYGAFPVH

[23] = target: T1, Serine/threonine-protein kinase ATR; test: In vivo inhibition of ATR in human LoVo cells xenografted in NOD/SCID mouse assessed as inhibition of ATR phosphorylation at 50 to 100 mg/kg, po administered twice a day for 30 days by Western blot analysis; conditions: dose 50-100 mg/kg, time 30.0 day
Target sequence in this assay (Q13535 whole entry, looked up): as the sequence (Q13535 whole entry, looked up) above

HT-29 [24] = test: Induction of apoptosis in human HT-29 cells assessed as late apoptotic cells at 0.3 uM measured after 48 hrs in presence of AZD1390 by Annexin V-FITC/Propidium iodide staining based flow cytometry analysis (reference value: 0.63%); format: functional
HT-29 [25] = test: Induction of apoptosis in human HT-29 cells assessed as early apoptotic cells at 1 uM measured after 48 hrs by Annexin V-FITC/Propidium iodide staining based flow cytometry analysis (reference value: 1.55%); format: functional
LoVo [26] = test: Induction of apoptosis in human LoVo cells deficient in ATM assessed as early apoptotic cells at 1 uM measured after 24 hrs by Annexin V-FITC/Propidium iodide staining based flow cytometry analysis (reference value: 4.20%); format: functional
HT-29 [27] = test: Induction of apoptosis in human HT-29 cells assessed as early apoptotic cells at 0.3 uM measured after 48 hrs in presence of AZD1390 by Annexin V-FITC/Propidium iodide staining based flow cytometry analysis (reference value: 3.81%); format: functional

C[C@@H]1COCCN1c1nc(-c2cccc3[nH]ccc23)nc2ccc(-c3ccnn3C)cc12
Activity (HepG2): Dde
Activity [1]: Non-Toxic
Activity (HT-29 [2]): 3.91%
viability at 0.3 µM (HT-29 [3]): 95.4%
Vd [4]: 2.03 L/kg
Activity (HT-29 [5]): 5.39%
Cmax [6]: 895 ng/mL
inhibition [7]: Dde
viability at 3 µM (LoVo [8]): 41.2%
viability at 0.3 µM (HT-29 [9]): 79%
Activity (LoVo [10]): Active
Activity [11]: Active
Activity (HT-29 [12]): 15.88%
IC50 [13]: 13 nM
Activity (HT-29 [14]): 1.06%
Activity (OVCAR-3): Dde
Activity (LoVo [15]): 27.07%
Cmax [16]: 3400 ng/mL
viability at 3 µM (HT-29 [17]): 93.1%
Activity (HT-29 [18]): 9.54%
Activity (LoVo [19]): Dde
inhibition in vivo at 100 mg/kg (LoVo [20]): 72.8%
inhibition in vivo at 50 mg/kg (LoVo [21]): 50%
IC50 [22]: 1770 nM
Activity [23]: Active
Activity (HT-29 [24]): 9.85%
Activity (HT-29 [25]): 2.32%
Activity (LoVo [26]): 28.91%
Activity (HT-29 [27]): 7.23%
